Consider five molecules from patent publication EP4180043A1, “RUTHENIUM COMPLEXES” (Universidad de Almeria, priority 2020, dated 2022).

This assay relates to cancer cells. Description: antiproliferative activity (anticancer properties). It counts as cell-based. The settings on record: cell line not stated; cisplatin in the same experiment; read-out: antiproliferative activity indicated by the cell survival half-life factor (IC50). The protocol:
Three examples of bi-heterometallic compounds which would be obtained from that compound present better activity as shown by their IC50: IC50 Ru-Zn: 9.07±0.27; IC50 Ru-Co: 5.40±0.19; IC50 Ru-Ni: 7.15±0.30 µM. Ru-Zn = [Ru(η^6-C10H14)(Cl2)-µ-dmoPTA-1κP:2κ^2N,N'-ZnCl2]. Ru-Co = [Ru(η^6-C10H14)(Cl2)-µ-dmoPTA-1κP:2κ^2N,N'-CoCl2]. Ru-Ni = [Ru(η^6-C10H14)(Cl2)-µ-dmoPTA-1κP:2κ^2N,N'-NiCl2].
What is called IC50 is the concentration at which inhibition is half-maximal. Regarding `N.N.[Cl][Pt][Cl]` [cisplatin, reference compound], the IC50 was found to be 45.6 ± 8.08 µM. Regarding [Ru(η^6-C10H14)(Cl2)(HdmoPTA)](OSO2CF3), the IC50 turned out to be 32.09 ± 0.3 µM. For the molecule “[Ru(η^6-C10H14)(Cl2)-µ-dmoPTA-1κP:2κ^2N,N'-CoCl2] [Ru-Co]”, the half-maximal inhibitory concentration (IC50) came to 5.4 ± 0.19 µM. The figure for “[Ru(η^6-C10H14)(Cl2)-µ-dmoPTA-1κP:2κ^2N,N'-NiCl2] [Ru-Ni]” is 7.15 ± 0.3 µM; for “[Ru(η^6-C10H14)(Cl2)-µ-dmoPTA-1κP:2κ^2N,N'-ZnCl2] [Ru-Zn]” it is 9.07 ± 0.27 µM.
